Experimental data from article PMC8341744 (RSC Chemical Biology, 2020).
pIC50: −log10 of the molar value. Where two headings read alike, the source gives them in different places.

Columns and labels:
Mcl-1 [1] = target: T1, Mcl-1 (Mus musculus, UniProt P97287, F227L/F267C/G222D/K236S/Q303E/S261T/T274S/V232I/V262I); settings: Mcl-1/Noxa; parent peptide; cited from earlier work
Mcl-1 [2] = target: T1, Mcl-1; assay: FITC-NoxaB Mcl-1 competitive binding fluorescence anisotropy

T1 sequence (P97287 152-308 G222D/F227L/V232I/K236S/S261T/V262I/F267C/T274S/Q303E): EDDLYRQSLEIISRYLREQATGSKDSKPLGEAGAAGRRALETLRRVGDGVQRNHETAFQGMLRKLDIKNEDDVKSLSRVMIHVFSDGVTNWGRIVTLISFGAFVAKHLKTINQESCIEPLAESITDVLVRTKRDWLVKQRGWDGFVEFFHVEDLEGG

pIC50 (Mcl-1 [2]) | Molecule | pIC50 (Mcl-1 [1])
 | AAQLRRIGDKVNLRQKLLN [NoxaB-(75–93)-C75A peptide] | 6.19
5.15 | CC(=O)O[C@@H]1[C@@H](OC(C)=O)[C@H](OC(C)=O)CO[C@H]1n1cc(-c2ccc(Br)cc2)nn1 [compound 8, (2R,3R,4S,5R)-2-(4-(4-bromophenyl)-1H-1,2,3-triazol-1-yl)tetrahydro-2H-pyran-3,4,5-triyl triacetate] | 
5.36 | CC(=O)O[C@@H]1[C@@H](OC(C)=O)[C@H](OC(C)=O)CO[C@H]1n1cc(-c2ccc(Cl)cc2)nn1 [compound 7, (2R,3R,4S,5R)-2-(4-(4-chlorophenyl)-1H-1,2,3-triazol-1-yl)tetrahydro-2H-pyran-3,4,5-triyl triacetate] | 
